Assay results from patent US20030180735A1, “Screening method” (priority 1999, published 2003).

Tested on: primary human neutrophils
Experiment: Neutrophil spontaneous apoptosis by cell shrinkage (forward scatter, flow cytometry)
Format: cell-based
Conditions: 6 hours of culture
Description: FIG. 4: Inhibition of NADPH oxidase can decrease the number of cells undergoing apoptosis. Neutrophils are cultured @2×10^6/ml in a 24 well plate. Following 6 hours of culture, Forward Scatter (FSc) parameters are examined following acquisition by a FacScan. Cell shrinkage is determined by the percentage of cells with reduced FSc compared with cellular FSc parameters at t=0 h.
Onset of apoptosis as determined by cell shrinkage was determined by flow cytometry. Isolated cells are set up in culture at a concentration of 2×10^6/ml. At the indicated time points a sample is removed and the forward and side scatter parameters of the cells are measured by flow cytometry using a Becton Dickenson FACScan equipped with CellQuest software. Cell shrinkage is detected by a reduction in forward scatter parameters. Determination of apoptosis inhibition was calculated by the percentage of cells with reduced forward scatter parameters, in untreated cultures, minus percentage of cells with reduced forward scatter parameters in treated cultures.
Primary human neutrophils are isolated and puriied from the peripheral blood of normal healthy individuals. Upon culture for 6 hour in a serum-containing cell culture medium, these neutrophils undergo ‘spontaneous apoptosis’ (Haslett, Clinical Science 83, pp639-648, 1992). […]

`c1ccc2c(c1)[I+]c1ccccc1-2` [DPI] was tested, and the “percentage of cells undergoing apoptosis (cell shrinkage, reduced FSc)” value was “decrease the percentage of cells undergoing apoptosis”.
